Measured values published in patent US20090298820A1, “3-SUBSTITUTED-1H-PYRROLO[2,3-B]PYRIDINE AND 3-SUBSTITUTED-1H-PYRROLO[3,2-B]PYRIDINE COMPOUNDS, THEIR USE AS MTOR KINASE AND PI3 KINASE INHIBITORS, AND THEIR SYNTHESES” (Wyeth, priority 2008, published 2009).
Like-named read-outs stand apart in the source and are kept apart here.

What was measured:
[1] = test system: human tumor xenograft models; conditions: cited from earlier work
[2] = test system: acute lymphoblastic leukemia; conditions: NOS/SCID xenograft; cited from earlier work
mTOR [3] = molecular target: T1, mTOR (Homo sapiens, UniProt P42345); conditions: read-out: mTOR complexes / mTOR enzymes IC50; literature value; cited from earlier work
PI3Kα = PI3Kα (Homo sapiens, UniProt P42336); assay: PI3K-alpha fluorescence polarization assay; assay type: biochemical; conditions: read-out: PI3Kα Median IC50
Chain of PI3Kα (P42336 whole entry, species assumed): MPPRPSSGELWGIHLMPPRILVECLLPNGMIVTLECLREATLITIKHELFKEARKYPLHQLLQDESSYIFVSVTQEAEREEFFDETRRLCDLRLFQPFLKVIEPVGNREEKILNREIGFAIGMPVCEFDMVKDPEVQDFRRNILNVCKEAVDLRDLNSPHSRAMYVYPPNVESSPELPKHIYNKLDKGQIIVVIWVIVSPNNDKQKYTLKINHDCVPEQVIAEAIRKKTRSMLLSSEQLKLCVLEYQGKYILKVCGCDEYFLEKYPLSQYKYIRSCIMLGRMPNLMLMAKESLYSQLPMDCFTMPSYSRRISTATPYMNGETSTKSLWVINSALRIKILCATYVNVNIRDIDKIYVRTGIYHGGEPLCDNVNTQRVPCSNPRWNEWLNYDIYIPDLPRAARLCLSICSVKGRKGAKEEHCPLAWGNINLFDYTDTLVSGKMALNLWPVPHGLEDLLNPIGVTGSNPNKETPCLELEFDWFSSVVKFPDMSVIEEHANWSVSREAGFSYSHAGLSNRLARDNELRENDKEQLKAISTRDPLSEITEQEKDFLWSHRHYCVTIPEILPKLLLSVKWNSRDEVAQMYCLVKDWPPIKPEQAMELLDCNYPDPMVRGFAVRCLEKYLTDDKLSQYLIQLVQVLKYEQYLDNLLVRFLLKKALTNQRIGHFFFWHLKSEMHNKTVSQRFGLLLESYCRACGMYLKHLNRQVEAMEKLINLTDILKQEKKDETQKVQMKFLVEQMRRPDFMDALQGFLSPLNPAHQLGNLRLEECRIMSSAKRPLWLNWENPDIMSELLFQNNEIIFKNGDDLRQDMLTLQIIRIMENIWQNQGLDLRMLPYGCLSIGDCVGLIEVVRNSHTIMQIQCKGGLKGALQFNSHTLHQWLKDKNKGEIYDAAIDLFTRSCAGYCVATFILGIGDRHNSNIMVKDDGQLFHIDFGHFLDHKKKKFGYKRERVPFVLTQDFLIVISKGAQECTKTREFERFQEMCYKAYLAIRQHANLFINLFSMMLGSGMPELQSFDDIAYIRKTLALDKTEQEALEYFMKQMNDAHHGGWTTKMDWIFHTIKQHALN
Chain of PI3Kα (P27986 whole entry partner, species assumed): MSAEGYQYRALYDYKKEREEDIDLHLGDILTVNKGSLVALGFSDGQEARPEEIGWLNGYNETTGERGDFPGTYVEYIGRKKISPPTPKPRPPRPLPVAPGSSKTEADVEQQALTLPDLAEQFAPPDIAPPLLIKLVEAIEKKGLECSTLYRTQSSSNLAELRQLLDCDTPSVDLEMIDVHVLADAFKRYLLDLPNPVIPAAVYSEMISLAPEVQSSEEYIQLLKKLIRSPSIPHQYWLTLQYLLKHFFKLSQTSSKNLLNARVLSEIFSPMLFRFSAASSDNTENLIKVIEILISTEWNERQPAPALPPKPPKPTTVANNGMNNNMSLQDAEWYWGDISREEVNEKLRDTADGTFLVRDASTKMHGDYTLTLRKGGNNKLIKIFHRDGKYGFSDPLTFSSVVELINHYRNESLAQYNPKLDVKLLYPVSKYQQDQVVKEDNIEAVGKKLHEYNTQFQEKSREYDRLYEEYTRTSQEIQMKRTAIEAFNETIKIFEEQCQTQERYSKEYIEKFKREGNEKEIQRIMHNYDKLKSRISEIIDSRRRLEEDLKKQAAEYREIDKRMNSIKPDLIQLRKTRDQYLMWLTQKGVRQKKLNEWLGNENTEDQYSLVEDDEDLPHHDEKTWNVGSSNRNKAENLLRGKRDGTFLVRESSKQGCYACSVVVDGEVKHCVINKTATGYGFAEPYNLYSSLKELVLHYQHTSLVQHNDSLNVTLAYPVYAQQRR

PI3Kγ = PI3Kγ (Homo sapiens, UniProt P48736); assay: PI3K-gamma fluorescence polarization assay; assay type: biochemical; conditions: read-out: PI3Kγ Median IC50
Chain of PI3Kγ (P48736 whole entry, species assumed): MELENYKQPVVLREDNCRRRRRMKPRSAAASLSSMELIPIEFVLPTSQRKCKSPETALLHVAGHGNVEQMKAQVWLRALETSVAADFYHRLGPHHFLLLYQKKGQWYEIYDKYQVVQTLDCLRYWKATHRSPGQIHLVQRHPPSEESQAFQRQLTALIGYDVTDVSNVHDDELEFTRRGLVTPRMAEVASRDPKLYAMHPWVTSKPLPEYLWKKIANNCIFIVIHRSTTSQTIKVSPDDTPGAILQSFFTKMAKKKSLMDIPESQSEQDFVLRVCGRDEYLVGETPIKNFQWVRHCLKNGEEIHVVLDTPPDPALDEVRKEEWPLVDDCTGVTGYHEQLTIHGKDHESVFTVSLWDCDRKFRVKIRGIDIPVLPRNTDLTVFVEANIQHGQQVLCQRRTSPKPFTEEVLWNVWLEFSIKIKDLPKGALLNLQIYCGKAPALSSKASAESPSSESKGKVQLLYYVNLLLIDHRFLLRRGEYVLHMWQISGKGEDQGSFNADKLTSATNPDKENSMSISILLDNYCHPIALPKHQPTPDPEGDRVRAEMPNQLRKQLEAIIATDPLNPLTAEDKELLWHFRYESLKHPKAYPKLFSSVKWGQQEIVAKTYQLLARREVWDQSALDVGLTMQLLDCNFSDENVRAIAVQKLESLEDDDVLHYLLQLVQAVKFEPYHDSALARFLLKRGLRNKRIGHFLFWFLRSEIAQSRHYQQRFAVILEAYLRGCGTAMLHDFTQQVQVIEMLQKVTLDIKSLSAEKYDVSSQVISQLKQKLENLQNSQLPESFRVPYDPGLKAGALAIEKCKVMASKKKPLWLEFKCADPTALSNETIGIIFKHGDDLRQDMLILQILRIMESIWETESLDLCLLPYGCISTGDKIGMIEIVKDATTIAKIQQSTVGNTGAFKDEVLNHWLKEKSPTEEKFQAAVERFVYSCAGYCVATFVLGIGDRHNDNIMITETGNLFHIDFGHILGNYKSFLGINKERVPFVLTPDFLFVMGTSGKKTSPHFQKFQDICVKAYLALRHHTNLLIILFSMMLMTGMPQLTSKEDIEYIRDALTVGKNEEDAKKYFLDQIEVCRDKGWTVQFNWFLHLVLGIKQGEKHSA

mTOR [4] = molecular target: T1, mTOR; assay: mTOR enzyme assay (DELFIA format, His6-S6K substrate); assay type: biochemical; conditions: read-out: mTOR Kinase Median IC50

| Structure (SMILES) | IC50 (PI3Kα) | IC50 (PI3Kγ) | IC50 (mTOR [4]) | melting point | activity against human tumor models ([1]; prostrate (PC-3) and glioblastoma (U-87)) | activity in xenograft mouse model [2] | activity against human tumor models ([1]; I.P. dosing in mice, U87MG, PC3, MDA-MB-468, MDA-MB-435, HCT 116, SKOV3, IGROV-1) | tumor growth inhibition ([1]; chronic oral administration, 400 mg/kg, A549, PC-3, WiDr) | IC50 (mTOR [3]) |
| --- | --- | --- | --- | --- | --- | --- | --- | --- | --- |
| Cn1c(=O)n(-c2ccc(C(C)(C)C#N)cc2)c2c3cc(-c4cnc5ccccc5c4)ccc3ncc21 [NVP-BEZ-235, 2-methyl-2-(4-(3-methyl-2-oxo-8-(quinolin-3-yl)-2,3-dihydro-1H-imidazo[4,5-c]quinolin-1-yl)phenyl)propanenitrile] | – | – | – | – | demonstrated activity | – | – | – | – |
| CO[C@H]1C[C@@H]2CC[C@@H](C)[C@@](O)(O2)C(=O)C(=O)N2CCCC[C@H]2C(=O)O[C@H]([C@H](C)C[C@@H]2CC[C@@H](OC(=O)C(C)(CO)CO)[C@H](OC)C2)CC(=O)[C@H](C)/C=C(\C)[C@@H](O)[C@@H](OC)C(=O)[C@H](C)C[C@H](C)/C=C/C=C/C=C/1C [Torisel] | – | – | – | – | – | active | – | – | – |
| Oc1cccc(-c2nc(N3CCOCC3)c3oc4ncccc4c3n2)c1 [PI103, 3-(4-(4-morpholinyl)pyrido[3′,2′:4,5]furo[3,2-d]pyrimidin-2-yl)phenol] | – | – | – | – | – | – | demonstrated activity | – | – |
| FC(F)c1nc2ccccc2n1-c1nc(N2CCOCC2)nc(N2CCOCC2)n1 [ZSTK474, 2-(2-difluoromethylbenzoimidazol-1-yl)-4,6-dimorpholino-1,3,5-triazine] | – | – | – | – | – | – | – | completely inhibited growth | > 10000 nM |
| Cn1cc(/C=C2\Oc3ccc(NC(=O)Nc4cccnc4)cc3C2=O)c2c(N3CCC(C(=O)NCc4cccnc4)CC3)ccnc21 [Compound 270, 1-{1-methyl-3-[(Z)-{3-oxo-5-[(pyridin-3-ylcarbamoyl)amino]-1-benzofuran-2(3H)-ylidene}methyl]-1H-pyrrolo[2,3-b]pyridin-4-yl}-N-(pyridin-3-ylmethyl)piperidine-4-carboxamide] | > 10000 nM | > 10000 nM | 6 nM | 187 to 194 °C | – | – | – | – | – |
| Cn1cc(/C=C2\Oc3ccc(NC(=O)Nc4cccnc4)cc3C2=O)c2c(N3CCC(C(=O)N4C5CCCC4COC5)CC3)ccnc21 [Compound 309, 1-[(2Z)-2-({1-methyl-4-[4-(3-oxa-9-azabicyclo[3.3.1]non-9-ylcarbonyl)piperidin-1-yl]-1H-pyrrolo[2,3-b]pyridin-3-yl}methylidene)-3-oxo-2,3-dihydro-1-benzofuran-5-yl]-3-pyridin-3-ylurea] | 164 nM | 1370 nM | 48 nM | 210 to 215 °C | – | – | – | – | – |
| CN(C)C(=O)c1ccccc1-c1ccnc2c1c(/C=C1\Oc3cccc(O)c3C1=O)cn2C [Compound 141, 2-{3-[(Z)-(4-hydroxy-3-oxo-1-benzofuran-2(3H)-ylidene)methyl]-1-methyl-1H-pyrrolo[2,3-b]pyridin-4-yl}-N,N-dimethylbenzamide] | 5900 nM | 1860 nM | 180 nM | 293 to 295 °C | – | – | – | – | – |
| CN(C)Cc1ccc(-c2ccnc3c2c(/C=C2\Oc4cccc(O)c4C2=O)cn3C)cc1 [Compound 113, (2Z)-2-[(4-{4-[(dimethylamino)methyl]phenyl}-1-methyl-1H-pyrrolo[2,3-b]pyridin-3-yl)methylene]-4-hydroxy-1-benzofuran-3(2H)-one] | 101 nM | 626 nM | 20 nM | 340 to 350 °C | – | – | – | – | – |
| Cn1cc(/C=C2\Oc3cccc(O)c3C2=O)c2c(N3CCC(C(N)=O)CC3)ccnc21 [Compound 114, 1-{3-[(Z)-(4-hydroxy-3-oxo-1-benzofuran-2(3H)-ylidene)methyl]-1-methyl-1H-pyrrolo[2,3-b]pyridin-4-yl}piperidine-4-carboxamide] | 29 nM | 127 nM | 0.7 nM | 280 to 287 °C | – | – | – | – | – |

Further lines, with some results ahead:

| IC50 (PI3Kα) | IC50 (PI3Kγ) | IC50 (mTOR [4]) | melting point | Structure (SMILES) | activity against human tumor models ([1]; prostrate (PC-3) and glioblastoma (U-87)) | activity in xenograft mouse model [2] | activity against human tumor models ([1]; I.P. dosing in mice, U87MG, PC3, MDA-MB-468, MDA-MB-435, HCT 116, SKOV3, IGROV-1) | tumor growth inhibition ([1]; chronic oral administration, 400 mg/kg, A549, PC-3, WiDr) | IC50 (mTOR [3]) |
| --- | --- | --- | --- | --- | --- | --- | --- | --- | --- |
| 6010 nM | > 10000 nM | 7.4 nM | 244 to 254 °C | Cn1cc(/C=C2\Oc3cccc(O)c3C2=O)c2c(-c3ccc(C(F)(F)F)cc3)ccnc21 [Compound 106, (2Z)-4-hydroxy-2-({1-methyl-4-[4-(trifluoromethyl)phenyl]-1H-pyrrolo[2,3-b]pyridin-3-yl}methylene)-1-benzofuran-3(2H)-one] | – | – | – | – | – |
| 239 nM | 1160 nM | 19 nM | 255 to 260 °C | C[C@@H]1CN(c2ccnc3c2c(/C=C2\Oc4ccc(NC(=O)Nc5cccnc5)cc4C2=O)cn3C)C[C@H](C)O1 [Compound 296, 1-[(2Z)-2-({4-[(2R,6S)-2,6-dimethylmorpholin-4-yl]-1-methyl-1H-pyrrolo[2,3-b]pyridin-3-yl}methylidene)-3-oxo-2,3-dihydro-1-benzofuran-5-yl]-3-pyridin-3-ylurea] | – | – | – | – | – |
| 75 nM | 98 nM | 2.3 nM | 262 to 270 °C | C[C@@H]1CN(C(=O)c2ccc(-c3ccnc4c3c(/C=C3\Oc5cccc(O)c5C3=O)cn4C)cc2)C[C@H](C)O1 [Compound 303, (2Z)-2-{[4-(4-{[(2R,6S)-2,6-dimethylmorpholin-4-yl]carbonyl}phenyl)-1-methyl-1H-pyrrolo[2,3-b]pyridin-3-yl]methylidene}-4-hydroxy-1-benzofuran-3(2H)-one] | – | – | – | – | – |
| 2370 nM | 3000 nM | 130 nM | 285 to 289 °C | Cn1cc(/C=C2\Oc3ccc(C(=O)O)cc3C2=O)c2c(N3CC4CCC(C3)O4)ccnc21 [Compound 197, (2Z)-2-{[1-methyl-4-(8-oxa-3-azabicyclo[3.2.1]oct-3-yl)-1H-pyrrolo[2,3-b]pyridin-3-yl]methylidene}-3-oxo-2,3-dihydro-1-benzofuran-5-carboxylic acid] | – | – | – | – | – |
| 24 nM | 45 nM | 5.6 nM | 175 to 180 °C | CN(C)CCNC(=O)Nc1ccc2c(c1)C(=O)/C(=C/c1cn(C)c3nccc(N4CC5CCC(C4)O5)c13)O2 [Compound 193, 1-[2-(dimethylamino)ethyl]-3-[(2Z)-2-{[1-methyl-4-(8-oxa-3-azabicyclo[3.2.1]oct-3-yl)-1H-pyrrolo[2,3-b]pyridin-3-yl]methylidene}-3-oxo-2,3-dihydro-1-benzofuran-5-yl]urea] | – | – | – | – | – |
| > 10000 nM | > 10000 nM | 69 nM | 220 to 223 °C | Cn1cc(/C=C2\Oc3cccc(O)c3C2=O)c2c(N3CC4(C)CC3CC(C)(C)C4)ccnc21 (stereo not shown) [Compound 105, (2Z)-4-hydroxy-2-{[1-methyl-4-(1,3,3-trimethyl-6-azabicyclo[3.2.1]oct-6-yl)-1H-pyrrolo[2,3-b]pyridin-3-yl]methylene}-1-benzofuran-3(2H)-one] | – | – | – | – | – |
| 62 nM | 249 nM | 16 nM | 242 to 244 °C | COc1ccc(-c2ccnc3c2c(/C=C2\Oc4cccc(O)c4C2=O)cn3C)cn1 [Compound 71, (2Z)-4-hydroxy-2-{[4-(6-methoxypyridin-3-yl)-1-methyl-1H-pyrrolo[2,3-b]pyridin-3-yl]methylene}-1-benzofuran-3(2H)-one] | – | – | – | – | – |
| 120 nM | 576 nM | 39 nM | 205 °C | CN(C)C1CCN(c2ccnc3c2c(/C=C2\Oc4cccc(O)c4C2=O)cn3C)C1 (stereo not shown) [Compound 112, (2Z)-2-({4-[3-(dimethylamino)pyrrolidin-1-yl]-1-methyl-1H-pyrrolo[2,3-b]pyridin-3-yl}methylene)-4-hydroxy-1-benzofuran-3(2H)-one] | – | – | – | – | – |
| 5 nM | 66 nM | 0.7 nM | 276 to 286 °C | Cn1cc(/C=C2\Oc3cc(O)cc(O)c3C2=O)c2c(-c3ccc(S(C)(=O)=O)cc3)ccnc21 [Compound 72, (2Z)-4,6-dihydroxy-2-({1-methyl-4-[4-(methylsulfonyl)phenyl]-1H-pyrrolo[2,3-b]pyridin-3-yl}methylene)-1-benzofuran-3(2H)-one] | – | – | – | – | – |
